Test results: patent US7652020B2, “Compounds for the treatment of inflammatory disorders” (Schering Corporation, priority 2004, dated 2010)

target: T1, purified catalytic domain of recombinant human TACE (rhTACEc) (Homo sapiens, UniProt P78536, N452Q/S266A); experiment: TACE kinetic assay: cleavage of internally quenched peptide substrate SPDL-3, fluorescence; type: biochemical; conditions: Ki (nM), TACE, representative compounds, numeric values
T1 construct: Residue 215 to 477 with two mutation (S266A and N452Q) and a 6×His tail; 6xHis (C); made in house; host or cells: baculovirus/Hi5 insect cells
T1 sequence (P78536 215-477 S266A/N452Q): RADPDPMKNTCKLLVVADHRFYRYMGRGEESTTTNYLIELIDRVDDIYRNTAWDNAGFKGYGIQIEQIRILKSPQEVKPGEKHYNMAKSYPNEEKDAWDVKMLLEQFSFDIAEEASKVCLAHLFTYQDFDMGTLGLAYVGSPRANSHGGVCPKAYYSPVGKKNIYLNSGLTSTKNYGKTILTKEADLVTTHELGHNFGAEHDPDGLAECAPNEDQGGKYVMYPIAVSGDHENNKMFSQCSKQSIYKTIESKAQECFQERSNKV

Row | Compound | Ki
1 | Cc1nc2ccccc2n1Cc1ccc(CNC(=O)[C@H](O)[C@@H](O)C(=O)N2Cc3ccccc3C2)s1 | 0.5 nM

same assay, conditions: TACE inhibitory activity, class symbols; read-out: Ki

Row | Compound | Ki
2 | COc1cc([C@@H](C)NC(=O)[C@](C)(O)[C@@H](O)C(=O)N2Cc3cccnc3C2)ccc1Br [Compound 2356] | > 1000 nM
3 | CNc1nc([C@H]2CCCN2C(=O)[C@H](O)[C@@H](O)C(=O)N[C@H](C)c2ccc(-n3cccn3)cc2)c(C)s1 [Compound 2268] | < 20 nM
4 | COc1cc2c(cc1OC)C(c1ccccc1)N(C(=O)[C@H](O)[C@@H](O)C(=O)N[C@H](C)c1ccc(-n3cccn3)cc1)CC2 (stereo partly drawn) [Compound 2442] | < 20 nM
5 | O=C(NCc1ccc(-c2ccccc2OC(F)(F)F)c[n+]1[O-])[C@H](O)[C@@H](O)C(=O)N1CCCC1 [Compound 2347] | > 1000 nM
6 | Cn1c(Cc2ccccc2)cnc1[C@H](O)[C@@H](O)C(=O)NCC1CCN(c2ccc(F)cc2C#N)CC1 [Compound 2365] | 100 to 1000 nM
7 | N#Cc1ccccc1N1CCC2(CC1)CC2NC(=O)[C@H](O)[C@@H](O)C(=O)N1Cc2ccccc2C1 (stereo partly drawn) [Compound 2154] | > 1000 nM
8 | C[C@@H](NC(=O)[C@H](O)[C@@H](O)C(=O)N1CC(C)(C)CC1c1cccc(Cl)c1)c1ccc(-n2cccn2)cc1 (stereo partly drawn) [Compound 2237] | 100 to 1000 nM
9 | C[C@@H](NC(=O)[C@H](O)[C@@H](O)C(=O)N1CCC[C@@H]1c1cccc(Cl)c1)c1ccc(-n2cccn2)cc1 [Compound 944] | < 20 nM
10 | Cn1cc(-c2ccccc2)nc1[C@H](O)[C@@H](O)C(=O)NCC1CCN(c2ccc(F)cc2C#N)CC1 [Compound 2396] | > 1000 nM
11 | O=C(NCc1ccc(-c2ccccc2OC(F)(F)F)c[n+]1[O-])[C@H](O)[C@@H](O)C(=O)N1Cc2ccccc2C1 [Compound 2348] | 100 to 1000 nM
12 | CCNc1nnc([C@H]2c3ccccc3CN2C(=O)[C@H](O)[C@@H](O)C(=O)N[C@H](C)c2ccc(-n3cccn3)cc2)o1 (stereo in doubt) [Compound 2527] | < 20 nM
13 | CCOc1cc(F)ccc1-c1ccc(CNC(=O)[C@](C)(O)[C@@H](O)C(=O)N2Cc3cccnc3C2)cc1 [Compound 2033] | < 20 nM
14 | C[C@@H](NC(=O)[C@H](O)[C@@H](O)C(=O)N1CCNCC1)c1ccc(-n2cccn2)cc1 [Compound 2423] | 100 to 1000 nM
15 | CC1(C)c2ccccc2CN1C(=O)[C@H](O)[C@@H](O)C(=O)NCC1CCN(c2ccccc2C#N)CC1 [Compound 2233] | < 20 nM
16 | C[C@@H](NC(=O)[C@H](O)[C@@H](O)C(=O)N1CCc2ncccc2C1)c1ccc(-n2cccn2)cc1 [Compound 2077] | 20 to 100 nM
17 | Cc1nc2c(s1)CN(C(=O)[C@H](O)[C@@H](O)C(=O)NCC1CCN(c3ccccc3C#N)CC1C)C2 (stereo partly drawn) [Compound 2151] | < 20 nM
18 | CCNc1nc([C@H]2c3ccccc3CN2C(=O)[C@H](O)[C@@H](O)C(=O)N[C@H](C)c2ccc(-n3cccn3)cc2)cs1 [Compound 2594] | < 20 nM
19 | Cc1noc([C@H]2c3ccccc3CN2C(=O)[C@H](O)[C@@H](O)C(=O)N[C@H](C)c2ccc(-n3cccn3)cc2)n1 (stereo in doubt) [Compound 2528] | < 20 nM
20 | C[C@@H](NC(=O)[C@H](O)[C@@H](O)C(=O)N1CCNCC1c1ccccc1)c1ccc(-n2cccn2)cc1 (stereo partly drawn) [Compound 2414] | 20 to 100 nM
21 | C[C@@H](NC(=O)[C@H](O)[C@@H](O)C(=O)N1CCC[C@@H]1c1ccn(-c2ccccc2)n1)c1ccc(-n2cccn2)cc1 [Compound 2597] | < 20 nM
22 | N#Cc1ccccc1N1CCC2(CC1)CC2NC(=O)[C@H](O)[C@@H](O)C(=O)N1CCC[C@@H]1c1ccccc1 (stereo partly drawn) [Compound 2152] | > 1000 nM
23 | CNc1ncc2c(n1)CN(C(=O)[C@H](O)[C@@H](O)C(=O)N[C@H](C)c1ccc(-n3cccn3)cc1)C2 [Compound 2052] | < 20 nM
24 | CCNc1nc([C@H]2c3ccccc3CCN2C(=O)[C@H](O)[C@@H](O)C(=O)N[C@H](C)c2ccc(-n3cccn3)cc2)cs1 [Compound 2587] | < 20 nM
25 | N#Cc1cc(F)ccc1N1C[C@@H]2C(CNC(=O)[C@H](O)[C@@H](O)C(=O)N3CCCC3)[C@@H]2C1 (stereo partly drawn) [Compound 2147] | 100 to 1000 nM
26 | N#Cc1cc(F)ccc1N1[C@@H]2CC[C@H]1CC(CNC(=O)[C@H](O)[C@@H](O)C(=O)N1CCC[C@@H]1c1ccccc1)C2 (stereo partly drawn) [Compound 2148] | 100 to 1000 nM
27 | N#Cc1cc(F)ccc1N1CCC(CNC(=O)[C@H](O)[C@@H](O)c2ccccn2)CC1 [Compound 2382] | > 1000 nM

The next lines start with the values.

Row | Ki | Compound
28 | > 1000 nM | C[C@H](c1ccc(-n2cccn2)cc1)N1CCO[C@H]([C@@H](O)C(=O)N2CCCC2c2ccccc2)C1=O (stereo partly drawn) [Compound 2478]
29 | 100 to 1000 nM | C[C@@H](NC(=O)[C@H](O)[C@@H](O)C(=O)N1CCn2cnnc2C1)c1ccc(-n2cccn2)cc1 [Compound 2080]
30 | 100 to 1000 nM | C[C@@H](NC(=O)[C@](C)(O)[C@@H](O)C(=O)N1Cc2cncnc2C1(C)C)c1ccc(-n2cccn2)cc1 [Compound 2047]
31 | < 20 nM | CC#CCOc1cc([C@@H](C)NC(=O)[C@](C)(O)[C@@H](O)C(=O)N2Cc3cccnc3C2)ccc1-n1cccn1 [Compound 2360]
32 | < 20 nM | CNc1nc([C@H]2CC(F)(F)CN2C(=O)[C@H](O)[C@@H](O)C(=O)N[C@H](C)c2ccc(-n3cccn3)cc2)cs1 [Compound 2567]
33 | 100 to 1000 nM | C[C@@H](NC(=O)[C@H](O)[C@@H](O)C(=O)N1CCC(=O)N1c1cccc(Cl)c1)c1ccc(-n2cccn2)cc1 [Compound 2494]
34 | 100 to 1000 nM | C[C@@H](NC(=O)[C@H](O)[C@@H](O)C(=O)N1CC=C[C@H]1c1cccc(Cl)c1)c1ccc(-n2cccn2)cc1 [Compound 2263]
35 | > 1000 nM | Cn1c(-c2ccccc2)cnc1[C@H](O)[C@@H](O)C(=O)NCC1CCN(c2ccc(F)cc2C#N)CC1 [Compound 2402]
36 | 20 to 100 nM | CC(c1cccc(Cl)c1)N(C)C(=O)[C@H](O)[C@@H](O)C(=O)N[C@H](C)c1ccc(-n2cccn2)cc1 (stereo partly drawn) [Compound 2480]
37 | 100 to 1000 nM | C[C@@H](NC(=O)[C@H](O)[C@@H](O)C(=O)N1C2CCC1c1cc(F)c(F)cc12)c1ccc(-n2cccn2)cc1 [Compound 2096]
38 | < 20 nM | O=C(NC[C@H]1CC[C@H](n2c(C(F)(F)F)nc3ccccc32)CC1)[C@H](O)[C@@H](O)C(=O)N1CCC[C@@H]1c1ccccc1 [Compound 2351]
39 | < 20 nM | O=C(NCc1ccc(-c2ccccc2OCCC2CCCCC2)cc1)[C@H](O)[C@@H](O)C(=O)N1CCCC1 [Compound 2338]
40 | 100 to 1000 nM | C[C@@H](NC(=O)[C@H](O)[C@@H](O)C(=O)N1CC(C)(C)CC1(C)c1nccs1)c1ccc(-n2cccn2)cc1 (stereo partly drawn) [Compound 2241]
41 | < 20 nM | C[C@@H](NC(=O)[C@H](O)[C@@H](O)C(=O)N1CC=C[C@@H]1c1cccc(Cl)c1)c1ccc(-n2cccn2)cc1 [Compound 2264]
42 | < 20 nM | Cc1nc2c(s1)CN(C(=O)[C@H](O)[C@@](C)(O)C(=O)N[C@H](C)c1ccc(-n3cccn3)cc1)C2 [Compound 2057]
43 | 20 to 100 nM | C[C@@H](NC(=O)[C@H](O)[C@@H](O)C(=O)N1CCc2nc(N)ncc2C1)c1ccc(-n2cccn2)cc1 [Compound 2075]

Row | Ki | Compound
44 | 20 to 100 nM | C[C@@H](NC(=O)[C@H](O)[C@@H](O)C(=O)N1CCCCC1c1csc(N)n1)c1ccc(-n2cccn2)cc1 (stereo partly drawn) [Compound 2417]
45 | < 20 nM | CC(C)Nc1nc([C@H]2c3ccccc3CN2C(=O)[C@H](O)[C@@H](O)C(=O)N[C@H](C)c2ccc(-n3cccn3)cc2)cs1 [Compound 2592]
46 | > 1000 nM | Cn1cnnc1[C@H](O)[C@@H](O)C(=O)NCC1CCN(c2ccc(F)cc2C#N)CC1 [Compound 2376]
47 | < 20 nM | CCOc1cc(F)ccc1-c1ccc(CNC(=O)[C@H](O)[C@@H](O)C(=O)N2Cc3ccncc3C2)cc1 [Compound 2042]
48 | < 20 nM | O=C(NC[C@H]1CC[C@@H](n2c(C(F)(F)F)nc3ccccc32)CC1)[C@H](O)[C@@H](O)C(=O)N1CCC[C@@H]1c1ccccc1 [Compound 2352]
49 | 100 to 1000 nM | CCOc1ncccc1-c1ccc(CNC(=O)[C@H](O)[C@@H](O)C(=O)N2CCCC2)cc1 [Compound 2335]
50 | > 1000 nM | O=C([C@H](O)[C@@H](O)c1cncc(-c2ccc(-c3ccccc3)cc2)n1)N1Cc2ccccc2C1 [Compound 2403]
51 | < 20 nM | C[C@@H](NC(=O)[C@H](O)[C@@H](O)C(=O)N1Cc2cccnc2C1)c1ccc(-n2cccn2)c(OCc2ccccc2)c1 [Compound 2304]
52 | 20 to 100 nM | O=C(NCC1CCN(c2ccccc2OCCC2CCCCC2)CC1)[C@H](O)[C@@H](O)C(=O)N1CCCC1 [Compound 2158]
53 | > 1000 nM | N#Cc1cc(F)ccc1N1CCC(CNC(=O)[C@H](O)[C@@H](O)c2cnccn2)CC1 [Compound 2387]
54 | 20 to 100 nM | NC[C@@H]1[C@H]2CN(C(=O)[C@H](O)[C@@H](O)C(=O)NCC3CCN(c4ccccc4OC(F)(F)F)CC3)C[C@@H]12 [Compound 2156]
55 | 20 to 100 nM | CC(C)(NC(=O)[C@H](O)[C@@H](O)C(=O)N1CCCC1)C1CCN(c2ccc(F)cc2C#N)CC1 [Compound 2157]
56 | < 20 nM | CCOc1ncccc1-c1ccc(CNC(=O)[C@H](O)[C@@H](O)C(=O)N2CCC[C@@H]2c2cccc(Cl)c2)cc1 [Compound 2334]
57 | > 1000 nM | Cn1ccnc1[C@H](O)[C@@H](O)C(=O)NCc1ccc(-n2cccn2)cc1 [Compound 2397]
58 | < 20 nM | C[C@@H](NC(=O)[C@H](O)[C@@H](O)C(=O)N1CCCCC1c1ccccc1)c1ccc(-n2cccn2)cc1 (stereo partly drawn) [Compound 2410]
59 | < 20 nM | CC(=O)N(C)c1nc([C@H]2CCCN2C(=O)[C@H](O)[C@@H](O)C(=O)N[C@H](C)c2ccc(-n3cccn3)cc2)cs1 [Compound 2261]

same assay, conditions: TACE, representative compounds, numeric values; read-out: Ki

Row | Compound | Ki
60 | CCNc1nnc(C2c3ccccc3CN2C(=O)[C@H](O)[C@@H](O)C(=O)N[C@H](C)c2ccc(-n3cccn3)cc2)o1 (stereo partly drawn) | 0.56 nM
61 | C[C@@H](NC(=O)[C@H](O)[C@@H](O)C(=O)N1CCC[C@@H]1c1ccn(-c2ccc(F)cc2)n1)c1ccc(-n2cccn2)cc1 [drawing 1317] | 2 nM
62 | CC#CCOc1cc([C@@H](C)NC(=O)[C@H](O)[C@@H](O)C(=O)N2CCC[C@@H]2c2cccc(Cl)c2)ccc1-n1cccn1 [drawing 1305] | 0.85 nM
63 | Cc1cccc(C)c1Cc1csc(CNC(=O)[C@H](O)[C@@H](O)C(=O)N2CCCC2c2cccc(N3CCN(C)CC3)c2)n1 (stereo partly drawn) | 2.5 nM
